Here are results for three compounds from patent US12448393B2, “Use of novel compound, for preventing, improving or treating amyotrophic lateral sclerosis” (PRG S&TECH INC., priority 2019, dated 2025).

Data set [1] deals with SOD1. Briefly: Western blot / native gel analysis of SOD1 aggregation. It counts as cell-based, human. As to conditions: Table 1; effect on SOD1 aggregation, native / non-SDS-PAGE gel. How it is done: Using RIPA buffer (50 mM Tris-Cl, pH 7.5, 150 mM NaCl, 1% NP-40, 0.1% SDS and […]) for SDS-PAGE and lysis buffer (50 mM Tris-Cl, pH 7.5, 150 mM NaCl, 0.3% NP-40) for Native-PAGE, proteins were extracted from cells. Samples were separated by the SDS-PAGE or the Native-PAGE and transferred to PVDF membrane. Blotted membrane was blocked with TBST buffer including 3% skim milk for 1 hour, and reacted with specific antibodies. The reacted antibodies were detected by ECL and X-ray film exposure. Antibodies used in the present disclosure are as follows: pan-SOD1 (GTX100554) was purchased from Genetex (California, USA). Misfolded SOD1-specific antibody (B8H10) was purchased from MediMabs (Montreal, Canada). Actin (sc-1616), GST (sc-138), and GFP (Green fluorescent protein; sc-8036) were purchased from Santa Cruz biotechnology (Santa Cruz, CA, USA). TDP-43 antibody (10782-2-AP) was purchased from Proteintech (Rosemont, IL, USA). Anti-FLAG (Sigma; F3165) was purchased from Sigma Aldrich (St, Louis, Mo, USA), and HRP-conjugated goat anti-mouse, goat anti-rabbit, and mouse anti-goat antibodies (Pierce, Thermo Fisher Scientific, Inc., Rockford, IL, USA) were used as secondary antibodies.
(§1) GFP-SOD1 (WT, G85R, G93A), non-tagged SOD1 (WT, A4V, G37R, G85R, G93A) and tdTomato-TDP43 expression vectors were purchased from Addgene (Cambridge, MA, USA). Transfection was performed using Jet-PEI reagent (JetPEI; Polyplus transfection, New York, NY, USA) according to the manufacturer's protocol. Briefly, vectors were mixed with JetPEI reagent in 150 mM NaCl buffer, and then mixture was reacted for 15 minutes. The mixture was added to cells in serum-free medium and reacted for 4 hours. After reaction, the cells were replaced with a culture medium supplemented with 10% FBS.

In data set [2] the test system is SOD1. The experiment in a line: Immunofluorescence staining of SOD1 aggregation and misfolded SOD1. It counts as cell-based, human. As to conditions: Table 1; IF staining of SOD1. As for the experimental part: Cells on coverslip were washed with PBS, fixed with 4% PFA at room temperature for 30 minutes, and then infiltrated with 0.1% Triton X-100/PBS for 10 minutes. The cells were treated with blocking solution (anti-Human Antibody 1:500 dilution in PBS) for 1 hour, and then cells were reacted with anti-pan SOD1 (1:400 dilution), misfolded SOD1 (B8H10; 1:200 dilution in blocking solution) at 4° C. overnight. Finally, the cells were reacted with FITC and rhodamine-conjugated secondary antibody at 4° C. for 6 hours. Nuclei were stained with 4,6-diamidino-2-phenylindole (DAPI), and endoplasmic reticula (ERs) were stained with ER-Tracker Red dye for 10 minutes. The cells were washed 3 times with PBS, and then coverslips were mounted with mounting solution [H-5501; Vector Laboratories (Burlingame, CA, USA)] and analyzed by fluorescence microscopy (Zeiss).
as §1

For data set [3], the system named is WT-SOD1 and mutant SOD1-GST (A4V, G37R, G85R, G93A). Briefly: ELISA compound screening for binding inhibitor between WT-SOD1 and mutant SOD1. More on the design: species or system human. As to conditions: Table 1; compounds at final concentration of 50 μM. How it is done: For compound screening, the present inventors applied an ELISA assay system. To select a binding inhibitor between WT-SOD1 and mutant SOD1, the present inventors used 0.5% paraformaldehyde (PFA) to fix WT-SOD1 recombinant protein on a 96-well plate. The plate was dried, washed with phosphate-buffered saline (PBS), and reacted with the compounds at a final concentration of 50 μM, and then mutant SOD1-GST (A4V, G37R, G85R, G93A) proteins were added. After 2 hours of reaction, the 96-well plate was washed with PBS and blocked with 3% skim milk to prevent non specific reaction. The plate was reacted with anti-GST antibody (diluted at 1:10,000) for 1 hour, and then reacted with anti-mouse IgG-HRP (diluted at 1:50,000) for 1 hour. After washing twice, the plate was reacted with a 3,3′,5,5′-tetramethylbenzidine (TMB) solution (Calbiochem) for 30 minutes and a stop solution (1N H2SO4) for 30 minutes. Finally, the present inventors analyzed values using an ELISA reader (450 nm absorbance). Negative control (−; red line) was reacted without mutant SOD1, and positive control (+; blue line) was reacted with mutant SOD1 without the compounds.
To prepare recombinant proteins, human SOD1 (WT, A4V, G37R, G85R, G93A) was added to EcoRI and HindIII sites of pGEX-TEV vector, an improved vector made by adding a TEV protease cleavage site to pGEX-4T1 (Invitrogen). The recombinant proteins were expressed as GST-fusion proteins in Escherichia coli (E. coli) strain BL21 (DE3). The proteins were purified by glutathione-affinity chromatography.

In data set [4] the test system is SOD1^G93A-Tg mice. Briefly: In vivo drug treatment of ALS model mice (grip strength, behaviour, histology, survival). More on the design: species or system mouse. As to conditions: for effects in ALS model mice: FIGS. 11A and 11B, summary statements; for In vivo: Table 1, ALS model mice. As for the experimental part: An experiment was performed in a facility approved by the Association for Laboratory Animal Care Assessment and Accreditation in accordance with the animal policy approved by Busan National University. B6SJL-Tg (SOD1^G93A) mice were purchased from Jackson Laboratory (Stock No: 002726). All mice were maintained under temperature and light-controlled conditions (20˜23° C., light-dark cycle 12 hr-12 hr) and were provided with sterile food and water.
Vehicle (DMSO) and SLC-B036 (10 mg/kg, 20 mg/kg) were administered to 12-week-old or 14-week-old SOD1^G93A mice via intraperitoneal injection twice weekly for 6 weeks. Control mice were treated under the same conditions. For histological analysis, mice were sacrificed at 18 weeks. After dissection of mice, spinal cord was fixed with 4% paraformaldehyde for 48 hours according to basic tissue processing procedures, and embedded in a paraffin block. An embedded tissue (cervical region of the spinal cord) was cut into 5 μm with a Leica microtome, and transferred to an adhesive-coated slide (Marienfeld laboratory glassware, Germany). After deparaffinization and rehydration, the slide was stained with hematoxylin and eosin to determine the number of spinal nerves.
For behavioral experiment, grip strength was checked every 2 weeks using a grip strength meter. The mice were allowed to grasp a tension bar with their forelimbs, and then their tails were slowly pulled until they released the bar. To observe motility, respiration, and quadriplegia of the mice, image analysis was performed at the end of administration (18-20 weeks).

The subject of data set [5] is normal human fibroblasts. The experiment in a line: Cell viability measurement (MTT), normal fibroblasts. It counts as cell-based. As to conditions: for cytotoxic effect in normal fibroblasts: MTT, FIG. 4E, FIG. 9B; for Toxicity (MTT): Table 1, cell type not given, neurons (FIG. 9A) and normal fibroblasts (FIG. 9B). How it is done: (§2) HEK293 cells were purchased from American Type Culture Collection (ATCC, Manassas, VA, USA) and maintained at 37° C. and 5% CO2 in DMEM liquid medium including 10% fetal bovine serum and 1% penicillin-streptomycin. SK—N—SH cells were purchased from Korean Cell Line Bank (KCLB, Seoul, South Korea) and maintained in MEM medium including 10% fetal bovine serum, 1% antibiotic, 25 mM HEPES, and 300 mg/L L-Glu. Human fibroblasts (person) were purchased from Coriell Cell Repositories (New Jersey, USA) and maintained in EMEM including 15% FBS, 2 mM Glutamine, and 26 mM HEPES without antibiotics. Thapsigargin (ER calcium scavenger: CAS 67526-95-8) was purchased from Calbiochem (Darmstadt, Germany). CoCl2 (hypoxia-inducer: C8661) was purchased from Sigma Aldrich (St, Louis, Mo, USA).
(§3) To check cells viability, the cells were reacted with 0.5 mg/ml MTT solution (475989; Merck, Darmstadt, Germany) at 37° C. for 4 hours. After removing residual solution and washing with PBS, precipitate was dissolved in 200 μl DMSO, and quantified by measuring absorbance at 540 nm.

Data set [6] has as its system neurons. Briefly: Cell viability measurement (MTT), neurons. As to conditions: FIG. 9A. It counts as cell-based. How it is done:
as §2, §3

Data set [7] in a line: Pharmacokinetics (PK) analysis. It counts as in vivo. As to conditions: for PK study BA: Table 1.

“Also recorded” adds a separate entry of the source.

As to `COc1cc(/C=C/CO[C@H]2Cc3cc4ccc(=O)oc4cc3OC2(C)C)ccc1O` [PRG-A-02, (S,E)-7-((3-(4-hydroxy-3-methoxyphenyl)allyl)oxy)-8,8-dimethyl-7,8-dihydro-2H,6H-pyrano[3,2-g]chromen-2-one], the “Western Blot” value in data set [1] is given as “Effect ○”. Further, in data set [2], the Immuno-fluorscence entry is “Effect ○”. Further, in data set [3], the ELISA result is given as “Effect ○”. Also, in data set [4], the “effects in ALS model mice” value was “good effects” and the In vivo entry is given as “Effect ○”. In data set [5], the “cytotoxic effect in normal fibroblasts” value is “did not exhibit cytotoxicity” and the “Toxicity (MTT)” value is reported as “No”. The cytotoxicity in neurons result in data set [6] is reported as “did not exhibit cytotoxicity”. For the same compound, in data set [7], the “PK study BA” value was “(0.3%)”.
`CC1(C)Oc2cc3oc(=O)ccc3cc2C[C@@H]1OC(=O)/C=C/c1ccc(F)cc1` [PRG-A-03, (S)-8,8-dimethyl-2-oxo-7,8-dihydro-2H,6H-pyrano[3,2-g]chromen-7-yl (E)-3-(4-fluorophenyl) acrylate]: the “Western Blot” value in data set [1] is listed as “Effect ○”. Also, in data set [2], the Immuno-fluorscence entry is “Effect ○”. In data set [3], the ELISA result is “Effect ○”. For the same compound, in data set [4], the “effects in ALS model mice” value was “good effects” and the In vivo entry was “Effect ○”. For the same compound, in data set [5], the “cytotoxic effect in normal fibroblasts” value is “did not exhibit cytotoxicity” and the “Toxicity (MTT)” value is recorded as “No”. Further, the cytotoxicity in neurons result in data set [6] is given as “did not exhibit cytotoxicity”. Also, the “PK study BA” value in data set [7] is “(3.7%)”.
As for `COc1cc(/C=C/CO[C@H]2Cc3cc4ccc(=O)oc4cc3OC2(C)C)ccc1[N+](=O)[O-]` [PRG-A-04, (S,E)-7-((3-(3-methoxy-4-nitrophenyl)allyl)oxy)-8,8-dimethyl-7,8-dihydro-2H,6H-pyrano[3,2-g]chromen-2-one], in data set [1], the “Western Blot” value is on record as “Effect ○”. In addition, the Immuno-fluorscence result in data set [2] is on record as “Effect ○”. Also, the ELISA result in data set [3] is reported as “Effect ○”. Besides, in data set [4], the “effects in ALS model mice” value was “Excellent effects; also recorded: good effects” and the In vivo result is recorded as “Effect ○”. In addition, in data set [5], the “cytotoxic effect in normal fibroblasts” value is “did not exhibit cytotoxicity” and the “Toxicity (MTT)” value is “No”. Also, the cytotoxicity in neurons result in data set [6] is on record as “did not exhibit cytotoxicity”. The PK profile result in data set [7] (FIG. 10) was “appropriate PK profile”. Moreover, the “PK study BA” value in data set [7] is on record as 60.7%.
